Measurements taken from the NIST ThermoML archive (doi:10.1016/j.fluid.2014.06.026).
Numbers after ± are expanded uncertainties.

Conditions: 101.33 kPa, Liquid; for viscosity: Cone and plate viscometry; for mass density: Vibrating tube method

Question: For c1cn(CCOCCOCCOCCn2ccnc2)cn1, which viscosity (298.2 K) is on record?
Answer: 535.6 ± 27 mPa·s

Question: What about the mass density (298.2 K) of the same molecule?
Answer: 1172.67 ± 1.2 kg/m3

Question: And the viscosity (303.2 K)?
Answer: 356 ± 16 mPa·s

Question: And the mass density (303.2 K)?
Answer: 1168.77 ± 1.2 kg/m3

Question: What about the viscosity (308.2 K) of the same molecule?
Answer: 240.2 ± 9.5 mPa·s

Question: And the mass density (308.2 K)?
Answer: 1164.87 ± 1.2 kg/m3

Question: What about the viscosity (313.2 K) of the same molecule?
Answer: 178.2 ± 6.2 mPa·s

Question: And the mass density (313.2 K)?
Answer: 1161.05 ± 1.2 kg/m3

Question: What about the viscosity (318.2 K) of the same molecule?
Answer: 129.2 ± 4 mPa·s

Question: And the mass density (318.2 K)?
Answer: 1157.29 ± 1.2 kg/m3

Question: And the viscosity (323.2 K)?
Answer: 93.9 ± 2.7 mPa·s

Question: And the mass density (323.2 K)?
Answer: 1153.51 ± 1.2 kg/m3

Question: And the viscosity (328.2 K)?
Answer: 69.8 ± 1.8 mPa·s

Question: What about the mass density (328.2 K) of the same molecule?
Answer: 1149.74 ± 1.2 kg/m3

Question: What about the viscosity (333.2 K) of the same molecule?
Answer: 56.8 ± 1.4 mPa·s

Question: What about the mass density (333.2 K) of the same molecule?
Answer: 1145.96 ± 1.2 kg/m3

Question: And the viscosity (338.2 K)?
Answer: 44.9 ± 1.1 mPa·s

Question: And the mass density (338.2 K)?
Answer: 1142.19 ± 1.1 kg/m3

Question: What about the viscosity (343.2 K) of the same molecule?
Answer: 36.7 ± 0.9 mPa·s

Question: And the mass density (343.2 K)?
Answer: 1138.43 ± 1.1 kg/m3

Question: And the viscosity (348.2 K)?
Answer: 29.1 ± 0.7 mPa·s

Question: And the mass density (348.2 K)?
Answer: 1134.66 ± 1.1 kg/m3

Question: What about the viscosity (353.2 K) of the same molecule?
Answer: 24.9 ± 0.6 mPa·s

Question: And the mass density (353.2 K)?
Answer: 1130.91 ± 1.1 kg/m3

Question: Which viscosity (298.2 K) does the source give for CCCCCCCCCCCCn1ccnc1 [1-dodecyl-1H-imidazole] here?
Answer: 24 ± 0.3 mPa·s

Question: What about the mass density (298.2 K) of the same molecule?
Answer: 898.68 ± 0.74 kg/m3

Question: And the viscosity (303.2 K)?
Answer: 20.1 ± 0.3 mPa·s

Question: And the mass density (303.2 K)?
Answer: 895.23 ± 0.73 kg/m3

Question: What about the viscosity (308.2 K) of the same molecule?
Answer: 15.9 ± 0.2 mPa·s

Question: And the mass density (308.2 K)?
Answer: 891.79 ± 0.73 kg/m3

Question: And the viscosity (313.2 K)?
Answer: 13.3 ± 0.2 mPa·s

Question: And the mass density (313.2 K)?
Answer: 888.35 ± 0.73 kg/m3

Question: What about the viscosity (318.2 K) of the same molecule?
Answer: 11.1 ± 0.2 mPa·s

Question: And the mass density (318.2 K)?
Answer: 884.92 ± 0.72 kg/m3

Question: What about the viscosity (323.2 K) of the same molecule?
Answer: 9.42 ± 0.12 mPa·s

Question: What about the mass density (323.2 K) of the same molecule?
Answer: 881.49 ± 0.72 kg/m3

Question: And the viscosity (328.2 K)?
Answer: 8.06 ± 0.1 mPa·s

Question: And the mass density (328.2 K)?
Answer: 878.07 ± 0.71 kg/m3

Question: What about the viscosity (333.2 K) of the same molecule?
Answer: 6.96 ± 0.09 mPa·s

Question: And the mass density (333.2 K)?
Answer: 874.64 ± 0.71 kg/m3

Question: What about the viscosity (338.2 K) of the same molecule?
Answer: 6 ± 0.08 mPa·s

Question: And the mass density (338.2 K)?
Answer: 871.22 ± 0.71 kg/m3

Question: And the viscosity (343.2 K)?
Answer: 5.33 ± 0.07 mPa·s

Question: And the mass density (343.2 K)?
Answer: 867.81 ± 0.7 kg/m3

Question: And the viscosity (348.2 K)?
Answer: 4.7 ± 0.06 mPa·s

Question: And the mass density (348.2 K)?
Answer: 864.4 ± 0.7 kg/m3

Question: What about the viscosity (353.2 K) of the same molecule?
Answer: 4.16 ± 0.05 mPa·s

Question: What about the mass density (353.2 K) of the same molecule?
Answer: 860.98 ± 0.7 kg/m3
